According to patent US20090239877A1, “NOVEL 1,2,4-TRIAZOLE DERIVATIVES AND PROCESS OF MANUFACTURING THEREOF” (AETERNA ZENTARIS GmbH, priority 2008, published 2009):

Tests used:
[1] = target: T1, human GHS-R 1a (Homo sapiens, UniProt Q92847); experiment: GHS-R 1a receptor-ligand binding assay (membrane preparations from transfected LLC PK-1 cells); set-up: expressed in transfected cells; details: displacement of 125I-His9-ghrelin; plasma membranes of LLC PK-1 cells transiently transfected with human GHS-R 1a; mean of at least two independent experiments in triplicates
Procedure, shortened: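 Membranes (10 μg protein) from LLC PK-1 cells transiently transfected with human GHS-R 1a cDNA were incubated 60 min at 25° C in 50 mM Tris pH 7.3 buffer with […] ^125I-His^9-ghrelin, with nonspecific binding defined by 10^−6 M ghrelin. Filter-bound radioactivity was gamma-counted, and IC50 was obtained by non-linear regression of competition curves.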

[2] = target: T1, human GHS-R 1a; experiment: In vitro intracellular calcium release assay using human GHS-R 1a transfected CHO cells; type: cell-based; set-up: expressed in transfected cells; host or cells: CHO-K1 Chinese hamster ovary cells (ATCC No. CCL-61), transient transfection by electroporation; details: antagonist dissociation constant, antagonist inhibition curves in the presence of 10^-7 M ghrelin, Cheng-Prusoff equation, Fluo-4 AM
[3] = target: T1, human GHS-R 1a; experiment: as above; type: cell-based; set-up: expressed in transfected cells; host or cells: CHO-K1 Chinese hamster ovary cells (ATCC No. CCL-61), transient transfection by electroporation; details: for activation at 1 µM: intracellular calcium release, compound at 10^-6 M, relative to basal level (0%) and 1 μM ghrelin (100%)
Method: The ability to properly activate the receptors is assessed for any compound of the invention by comparing the degree of activation (increase of intracellular calcium) of GHS-R 1a by the compound to be tested (at 10^−6 M concentration) to the degree of activation (increase of intracellular calcium) of GHS-R 1a by 10^−6 M ghrelin (100%) and to the basal level (0%). Such assessment can be readily performed by the skilled artisan due to his expert knowledge. The output is a percentage value for each compound to be tested. […]
III) In Vitro Intracellular Calcium Release Assay Using Human GHS-R 1a Transfected CHO Cells
The potential of the compounds of the invention to modulate GHS receptor activity was assessed by an in vitro intracellular Calcium release assay employing CHO cells that were transfected with human GHS-R 1a.
Release of intracellular calcium or inhibition thereof was measured using the fluorescent calcium indicator assay (FLIPR) and Fluo-4 AM.
CHO cells (CHO-KI Chinese Hamster Ovary cell line, ATCC No. CCL-61) were transiently transfected with human GHS-R 1a cDNA by electroporation and plated into 96-well black bottom plates (Corning 3603) (80,000 cells/well). Transient transfections were performed using the Easyject Optima Electroporator (Equibio), according to the manufacturer's instructions.
Transfected cells were grown in Dulbecco's modified Eagle's medium without phenol red, supplemented with 10% (v/v) non-essential amino acids, […] glutamine and streptomycin-penicillin (250 μg/ml-250 u/ml) (all purchased from Cambrex) at 37° C., 5% CO2 in a humidified atmosphere for 24 hours.
After incubation, transfected cells were washed with 150 μl Buffer A [Hanks' balanced salt solution (Sigma H-6648), 0.5% (v/v) BSA (Sigma A-7906), 20 mM CaCl2, 2.5 mM probenecid (pH 7.4, dissolved in 1 M NaOH) (Sigma P-8761)] and were then loaded with fluorescent calcium indicator Fluo-4 AM (10^−6 M) (Interchim UP72972) prepared in Buffer A, additionally containing 0.06% pluronic acid (Molecular probes P-6867) (a […] detergent which facilitates Fluo-4AM ester loading). (Loading: 100 μl per well of Buffer A containing 120 μl/ml Pluronic Acid and 1 μM Fluo-4AM was added to the cells).
After loading with Fluo-4 AM, transfected cells were incubated for 1 hour in the dark at 37° C.
Compounds to be tested were dissolved in Buffer A in triplicates at a concentration of 10^−6 M and distributed into another 96-well plate (Fisher Labosi A1210500).
Following incubation, excess Fluo-4AM was removed, 100 μl of Buffer A was added to each well at room temperature and immediately removed by aspiration. This was then repeated, before adding 50 μl Buffer A to each well.
Transfected cells were further incubated room temperature for 30 min to allow complete de-esterification of intracellular Fluo-4AM esters.
Subsequently, both plates, the black-bottom plate containing transfected cells and the microtiter plate containing the compounds to be tested, were then placed into a temperature-regulated (25° C.) FlexStation machine (benchtop scanning fluorometer Flex Station II, Molecular Devices, Sunnyvale, Calif., USA) for fluorescence output measurements.
Basal fluorescence output from the transfected cells was measured for 15 sec and then 50 μl of the compounds to be tested were automatically distributed into the wells containing the transfected cells. The fluorescence output was then recorded for a further 45 sec.
Excitation and emission wavelengths were 485 nm and 525 nm, respectively. Basal fluorescence intensity of Fluo-4AM-loaded transfected cells without compounds to be tested varied between 800-1200 arbitrary units, whereas maximal fluorescence output of dye-loaded transfected cells upon incubation with the compounds to be tested varied between 5000-7000 arbitrary units and was equivalent to that achieved by stimulation of dye-loaded transfected cells with 10^−6 M ghrelin. […]

T1 sequence (Q92847 whole entry): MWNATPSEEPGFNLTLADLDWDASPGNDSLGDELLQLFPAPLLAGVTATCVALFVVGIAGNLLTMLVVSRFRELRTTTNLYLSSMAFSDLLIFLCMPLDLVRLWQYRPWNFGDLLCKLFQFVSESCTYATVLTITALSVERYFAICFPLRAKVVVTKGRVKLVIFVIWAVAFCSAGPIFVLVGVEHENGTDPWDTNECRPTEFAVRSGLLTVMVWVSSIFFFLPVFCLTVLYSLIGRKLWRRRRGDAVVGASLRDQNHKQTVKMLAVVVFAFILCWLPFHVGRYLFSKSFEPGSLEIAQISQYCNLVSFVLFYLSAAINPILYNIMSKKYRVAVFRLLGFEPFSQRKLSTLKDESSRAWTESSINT

Compound	IC50 [1]	Kb [2]	activation at 1 µM [3]	EC50 ([3]; agonists, dose-response curve of intracellular calcium release)
O=C(N[C@H](Cc1c[nH]c2ccccc12)c1nnc(CCc2ccccc2)n1Cc1cccc2ccccc12)c1ccccn1 [Compound 16, N-((R)-2-(1H-indol-3-yl)-1-(4-((naphthalen-1-yl)methyl)-5-phenethyl-4H-1,2,4-triazol-3-yl)ethyl)picolinamide]	125 nM	79 nM		
O=C(N[C@H](Cc1c[nH]c2ccccc12)c1nnc(Cc2ccccc2)n1Cc1ccc(Cl)c(Cl)c1)C1CCOCC1 [Compound 37, N-((R)-1-(4-(3,4-dichlorobenzyl)-5-benzyl-4H-1,2,4-triazol-3-yl)-2-(1H-indol-3-yl)ethyl)-tetrahydro-2H-pyran-4-carboxamide]	200 nM	215 nM	0%	
COc1ccc(Cn2c(CCc3c[nH]c4ccccc34)nnc2[C@H](Cc2c[nH]c3ccccc23)NC(=O)c2cnccn2)cc1 [Compound 29, N-((S)-1-(5-(2-(1H-indol-3-yl)ethyl)-4-(4-methoxybenzyl)-4H-1,2,4-triazol-3-yl)-2-(1H-indol-3-yl)ethyl)pyrazine-2-carboxamide]		215 nM	0%	
COc1ccc(Cn2c(CCc3ccccc3)nnc2[C@@H](Cc2c[nH]c3ccccc23)NC(=O)c2ccnnc2)c(OC)c1 [Compound 7, N-((R)-1-(4-(2,4-dimethoxybenzyl)-5-phenethyl-4H-1,2,4-triazol-3-yl)-2-(1H-indol-3-yl)ethyl)pyridazine-4-carboxamide]		57 nM	3%	
COc1ccc(Cn2c(CCc3ccccc3)nnc2[C@@H](Cc2c[nH]c3ccccc23)NC(=O)c2ccn[nH]2)c(OC)c1 [Compound 8, N-((R)-1-(4-(2,4-dimethoxybenzyl)-5-phenethyl-4H-1,2,4-triazol-3-yl)-2-(1H-indol-3-yl)ethyl)-1H-pyrazole-5-carboxamide]	350 nM	64 nM	0%	
O=C(Cc1ccccn1)N[C@H](Cc1c[nH]c2ccccc12)c1nnc(Cc2ccccc2)n1Cc1ccc(Cl)c(Cl)c1 [Compound 34, N-((R)-1-(4-(3,4-dichlorobenzyl)-5-benzyl-4H-1,2,4-triazol-3-yl)-2-(1H-indol-3-yl)ethyl)-2-(pyridin-2-yl)acetamide]	110 nM	340 nM	0%	
COc1ccc(Cn2c(CCc3cc4ccccc4[nH]3)nnc2[C@@H](Cc2c[nH]c3ccccc23)NC(=O)C2CCOCC2)c(OC)c1 [Compound 11, N-((R)-1-(5-(2-(1H-indol-2-yl)ethyl)-4-(2,4-dimethoxybenzyl)-4H-1,2,4-triazol-3-yl)-2-(1H-indol-3-yl)ethyl)-tetrahydro-2H-pyran-4-carboxamide]	12 nM	40 nM	0%	
O=C(N[C@H](Cc1c[nH]c2ccccc12)c1nnc(CCCc2c[nH]c3ccccc23)n1Cc1ccccc1)C1CCOCC1 [Compound 23, N-((R)-1-(5-(3-(1H-indol-3-yl)propyl)-4-benzyl-4H-1,2,4-triazol-3-yl)-2-(1H-indol-3-yl)ethyl)-tetrahydro-2H-pyran-4-carboxamide]	370 nM	50 nM	15%	
O=C(N[C@H](Cc1c[nH]c2ccccc12)c1nnc(CCCc2c[nH]c3ccccc23)n1Cc1ccccc1)c1ccccn1 [Compound 21, N-((R)-1-(5-(3-(1H-indol-3-yl)propyl)-4-benzyl-4H-1,2,4-triazol-3-yl)-2-(1H-indol-3-yl)ethyl)picolinamide]	80 nM	300 nM	0%	
O=C(N[C@H](Cc1c[nH]c2ccccc12)c1nnc(CCc2ccccc2)n1Cc1cccc2ccccc12)C1CCOCC1 [Compound 19, N-((R)-2-(1H-indol-3-yl)-1-(4-((naphthalen-1-yl)methyl)-5-phenethyl-4H-1,2,4-triazol-3-yl)ethyl)-tetrahydro-2H-pyran-4-carboxamide]	390 nM	275 nM	0%	
COc1ccc(Cn2c(CCc3c[nH]c4ccccc34)nnc2[C@@H](Cc2c[nH]c3ccccc23)NC(=O)c2ccn[nH]2)cc1 [Compound 14, N-((R)-1-(5-(2-(1H-indol-3-yl)ethyl)-4-(4-methoxybenzyl)-4H-1,2,4-triazol-3-yl)-2-(1H-indol-3-yl)ethyl)-1H-pyrazole-5-carboxamide]	89.8 nM	12.8 nM	15%	
O=C(N[C@H](Cc1c[nH]c2ccccc12)c1nnc(Cc2ccccc2)n1Cc1ccc(Cl)c(Cl)c1)c1ccccn1 [Compound 36, N-((R)-1-(4-(3,4-dichlorobenzyl)-5-benzyl-4H-1,2,4-triazol-3-yl)-2-(1H-indol-3-yl)ethyl)picolinamide]	70 nM	215 nM	20%	
COc1ccc(Cn2c(CCc3ccccc3)nnc2[C@@H](Cc2c[nH]c3ccccc23)NC(=O)C2CCOCC2)c(OC)c1 [Compound 12, N-((R)-1-(4-(2,4-dimethoxybenzyl)-5-phenethyl-4H-1,2,4-triazol-3-yl)-2-(1H-indol-3-yl)ethyl)-tetrahydro-2H-pyran-4-carboxamide]	15.8 nM	68 nM	3%	
COc1ccc(Cn2c(CCc3ccccc3)nnc2[C@@H](Cc2c[nH]c3ccccc23)NC(=O)c2cccc(CN)c2)c(OC)c1 [Compound 6, N-((R)-1-(4-(2,4-dimethoxybenzyl)-5-phenethyl-4H-1,2,4-triazol-3-yl)-2-(1H-indol-3-yl)ethyl)-3-(amino-methyl)benzamide]	204 nM		4%	
COc1ccc(Cn2c(CCc3c[nH]c4ccccc34)nnc2[C@@H](Cc2c[nH]c3ccccc23)NC(=O)C2(N)CCNCC2)cc1 [Compound 47, N-((R)-1-(5-(2-(1H-indol-3-yl)ethyl)-4-(4-methoxybenzyl)-4H-1,2,4-triazol-3-yl)-2-(1H-indol-3-yl)ethyl)-4-aminopiperidine-4-carboxamide]	150 nM		100%	38 nM
